We go through one compound from publication PMC10298275, “Antiproliferative Activity and Impact on Human Gut Microbiota of New O-Alkyl Derivatives of Naringenin and Their Oximes” (International Journal of Molecular Sciences, 2023).

Broadly, the IC50 is the concentration at which inhibition is half-maximal. The MBC is the smallest concentration meeting the test's criterion for killing. As usually defined, the MIC is the lowest concentration that inhibits growth of the organism.

Converted amounts (≈) assume the structure as drawn.

Data set [1] relates to HT-29 cells. The data set can be described thus: RealTime-Glo Annexin V Apoptosis and Necrosis Assay. In kind it is cell-based, human. Conditions: HT-29, during 12 h incubation, applied concentrations 10-100 µg/mL. On the procedure: The process of apoptosis was determined using the RealTime-Glo Annexin V Apoptosis and Necrosis Assay (Promega) according to the manufacturer’s protocol. Briefly, 1 × 10^4 HT-29 cells were seeded into a single well of a 96-well plate. After overnight incubation, the cells were treated with 10, 25, 50 and 100 µg/mL of the investigated compounds and detection reagent for 24 h. As a negative control, untreated cells were used. The luminescence, fluorescence and OD525 signals were detected at each hour of the first 12 h of incubation. The end measurement was performed at the 24th hour of the experiment. All samples were prepared in triplicate, and then their means were calculated.

In data set [2] the test system is HT-29 cells. As to the kind of experiment: SRB assay, cytotoxicity. In kind it is cell-based, human. As to conditions: HT-29, SRB, 24 h exposure, three independent repeats. In general terms: The SRB assay estimates cell density from bound dye.
Data set [3] concerns 3T3-L1 cells. The data set can be described thus: SRB assay, cytotoxicity. In kind it is cell-based, mouse. As to conditions: 3T3-L1, SRB, 24 h exposure, three independent repeats.
Data set [4] relates to HT-29 cells. Details: method as in earlier work. As to conditions: ref 29 (Kocyigit et al.); cited from earlier work.
In data set [5] the test system is HT-29 cells. As to the kind of experiment: MTT assay, cell viability. The class given is cell-based, human. As to conditions: HT-29, MTT, 100 µg/mL, 24 h. A general note: Tetrazolium dyes change colour on reduction, which living cells bring about.
In data set [6] the test system is Enterococcus faecalis ATCC 29212. As to the kind of experiment: MBC assay. The class given is cell-based. As to conditions: E. faecalis ATCC 29212.
For data set [7], the system named is Escherichia coli K12. As to the kind of experiment: MBC assay. Conditions: E. coli K12. In kind it is cell-based.
Data set [8] concerns Staphylococcus aureus ATCC 25923. The data set can be described thus: MBC assay. The class given is cell-based. As to conditions: S. aureus ATCC 25923.
Data set [9] relates to Enterococcus faecalis ATCC 29212. As to the kind of experiment: MIC, microdilution method. In kind it is cell-based. As to conditions: E. faecalis ATCC 29212; MHB, 24 h, 37 °C; tested 512 to 1 µg/mL. On the technique in general: Broth dilution looks for growth in wells or tubes with falling amounts of substance.
Data set [10] concerns Escherichia coli K12. As to the kind of experiment: MIC, microdilution method. In kind it is cell-based. Conditions: E. coli K12; MHB, 18 h, 37 °C; tested 512 to 1 µg/mL.
Data set [11] relates to Staphylococcus aureus ATCC 25923. The data set can be described thus: MIC, microdilution method. The class given is cell-based. As to conditions: S. aureus ATCC 25923; MHB, 18 h, 37 °C; tested 512 to 1 µg/mL.

With `O/N=C1\CC(c2ccc(O)cc2)Oc2cc(O)cc(O)c21` (centres unmarked) [NGOX, naringenin oxime, reference compound], in data set [1], the “annexin V luminescence and necrosis fluorescence signals versus untreated cells” value is recorded as “both signals were similar to those for untreated cells”. The figures for the “Cytotoxicity (IC50 ± SD)” value in data set [2] and in [3] were above 100 µg/mL and 29.18 ± 2.00 µg/mL, respectively. In data set [4], the IC50 was 175 µg/mL (≈ 609 µM). The “reduction in cell viability” value in [5] is listed as “more than 50%”. Besides, the minimum bactericidal concentration (MBC) in [6], in [7] and in data set [8] was above 512 µg/mL each time. Besides, the MIC in [9] is 512 µg/mL (≈ 1780 µM); in [10], 512 µg/mL (≈ 1780 µM); in [11], above 512 µg/mL.
